Legend:
[1] = system: human non-small cell lung cancer cell line NCI-H460; assay: Cell proliferation inhibition test by sensitivity-enhancing to ionizing radiation (Cell Titer Glo); type: cell-based; conditions: concentration in which SER became 2, NCI-H460 cells, ionizing radiation 2 Gy, cultured 120 hour; for SER2 (concentration at which the radiation sensitivity-enhancement ratio reaches 2): Homo sapiens, NCI-H460, 120 h
Procedure, shortened: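 Radiosensitisation measured as SER, a ratio of Cell Titer Glo luminescence in irradiated vs unirradiated plates relative to DMSO; SER2, the concentration yielding SER 2, came from sigmoidal regression. Compound (0.1% DMSO) was given 24 h post-seeding, 2 Gy applied 30 min later, then 120 hour culture at 37° C.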

[2] = molecular target: T1, ATM (Homo sapiens, UniProt Q13315); assay: ATM inhibition test (phosphorylation of Chk2 generated by ionizing radiation, AlphaScreen SureFire); type: cell-based; conditions: phosphorylated Chk2 in NCI-H460 cells, ionizing radiation 8Gy, 1 hour after test compound treatment; read-out: ATM inhibitory activity
T1 construct: detecting phosphorylation of Chk2 in a human non-small cell lung cancer cell line NCI-H460 (ATCC company); host or cells: NCI-H460 human non-small cell lung cancer cells
T1 sequence (Q13315 whole entry): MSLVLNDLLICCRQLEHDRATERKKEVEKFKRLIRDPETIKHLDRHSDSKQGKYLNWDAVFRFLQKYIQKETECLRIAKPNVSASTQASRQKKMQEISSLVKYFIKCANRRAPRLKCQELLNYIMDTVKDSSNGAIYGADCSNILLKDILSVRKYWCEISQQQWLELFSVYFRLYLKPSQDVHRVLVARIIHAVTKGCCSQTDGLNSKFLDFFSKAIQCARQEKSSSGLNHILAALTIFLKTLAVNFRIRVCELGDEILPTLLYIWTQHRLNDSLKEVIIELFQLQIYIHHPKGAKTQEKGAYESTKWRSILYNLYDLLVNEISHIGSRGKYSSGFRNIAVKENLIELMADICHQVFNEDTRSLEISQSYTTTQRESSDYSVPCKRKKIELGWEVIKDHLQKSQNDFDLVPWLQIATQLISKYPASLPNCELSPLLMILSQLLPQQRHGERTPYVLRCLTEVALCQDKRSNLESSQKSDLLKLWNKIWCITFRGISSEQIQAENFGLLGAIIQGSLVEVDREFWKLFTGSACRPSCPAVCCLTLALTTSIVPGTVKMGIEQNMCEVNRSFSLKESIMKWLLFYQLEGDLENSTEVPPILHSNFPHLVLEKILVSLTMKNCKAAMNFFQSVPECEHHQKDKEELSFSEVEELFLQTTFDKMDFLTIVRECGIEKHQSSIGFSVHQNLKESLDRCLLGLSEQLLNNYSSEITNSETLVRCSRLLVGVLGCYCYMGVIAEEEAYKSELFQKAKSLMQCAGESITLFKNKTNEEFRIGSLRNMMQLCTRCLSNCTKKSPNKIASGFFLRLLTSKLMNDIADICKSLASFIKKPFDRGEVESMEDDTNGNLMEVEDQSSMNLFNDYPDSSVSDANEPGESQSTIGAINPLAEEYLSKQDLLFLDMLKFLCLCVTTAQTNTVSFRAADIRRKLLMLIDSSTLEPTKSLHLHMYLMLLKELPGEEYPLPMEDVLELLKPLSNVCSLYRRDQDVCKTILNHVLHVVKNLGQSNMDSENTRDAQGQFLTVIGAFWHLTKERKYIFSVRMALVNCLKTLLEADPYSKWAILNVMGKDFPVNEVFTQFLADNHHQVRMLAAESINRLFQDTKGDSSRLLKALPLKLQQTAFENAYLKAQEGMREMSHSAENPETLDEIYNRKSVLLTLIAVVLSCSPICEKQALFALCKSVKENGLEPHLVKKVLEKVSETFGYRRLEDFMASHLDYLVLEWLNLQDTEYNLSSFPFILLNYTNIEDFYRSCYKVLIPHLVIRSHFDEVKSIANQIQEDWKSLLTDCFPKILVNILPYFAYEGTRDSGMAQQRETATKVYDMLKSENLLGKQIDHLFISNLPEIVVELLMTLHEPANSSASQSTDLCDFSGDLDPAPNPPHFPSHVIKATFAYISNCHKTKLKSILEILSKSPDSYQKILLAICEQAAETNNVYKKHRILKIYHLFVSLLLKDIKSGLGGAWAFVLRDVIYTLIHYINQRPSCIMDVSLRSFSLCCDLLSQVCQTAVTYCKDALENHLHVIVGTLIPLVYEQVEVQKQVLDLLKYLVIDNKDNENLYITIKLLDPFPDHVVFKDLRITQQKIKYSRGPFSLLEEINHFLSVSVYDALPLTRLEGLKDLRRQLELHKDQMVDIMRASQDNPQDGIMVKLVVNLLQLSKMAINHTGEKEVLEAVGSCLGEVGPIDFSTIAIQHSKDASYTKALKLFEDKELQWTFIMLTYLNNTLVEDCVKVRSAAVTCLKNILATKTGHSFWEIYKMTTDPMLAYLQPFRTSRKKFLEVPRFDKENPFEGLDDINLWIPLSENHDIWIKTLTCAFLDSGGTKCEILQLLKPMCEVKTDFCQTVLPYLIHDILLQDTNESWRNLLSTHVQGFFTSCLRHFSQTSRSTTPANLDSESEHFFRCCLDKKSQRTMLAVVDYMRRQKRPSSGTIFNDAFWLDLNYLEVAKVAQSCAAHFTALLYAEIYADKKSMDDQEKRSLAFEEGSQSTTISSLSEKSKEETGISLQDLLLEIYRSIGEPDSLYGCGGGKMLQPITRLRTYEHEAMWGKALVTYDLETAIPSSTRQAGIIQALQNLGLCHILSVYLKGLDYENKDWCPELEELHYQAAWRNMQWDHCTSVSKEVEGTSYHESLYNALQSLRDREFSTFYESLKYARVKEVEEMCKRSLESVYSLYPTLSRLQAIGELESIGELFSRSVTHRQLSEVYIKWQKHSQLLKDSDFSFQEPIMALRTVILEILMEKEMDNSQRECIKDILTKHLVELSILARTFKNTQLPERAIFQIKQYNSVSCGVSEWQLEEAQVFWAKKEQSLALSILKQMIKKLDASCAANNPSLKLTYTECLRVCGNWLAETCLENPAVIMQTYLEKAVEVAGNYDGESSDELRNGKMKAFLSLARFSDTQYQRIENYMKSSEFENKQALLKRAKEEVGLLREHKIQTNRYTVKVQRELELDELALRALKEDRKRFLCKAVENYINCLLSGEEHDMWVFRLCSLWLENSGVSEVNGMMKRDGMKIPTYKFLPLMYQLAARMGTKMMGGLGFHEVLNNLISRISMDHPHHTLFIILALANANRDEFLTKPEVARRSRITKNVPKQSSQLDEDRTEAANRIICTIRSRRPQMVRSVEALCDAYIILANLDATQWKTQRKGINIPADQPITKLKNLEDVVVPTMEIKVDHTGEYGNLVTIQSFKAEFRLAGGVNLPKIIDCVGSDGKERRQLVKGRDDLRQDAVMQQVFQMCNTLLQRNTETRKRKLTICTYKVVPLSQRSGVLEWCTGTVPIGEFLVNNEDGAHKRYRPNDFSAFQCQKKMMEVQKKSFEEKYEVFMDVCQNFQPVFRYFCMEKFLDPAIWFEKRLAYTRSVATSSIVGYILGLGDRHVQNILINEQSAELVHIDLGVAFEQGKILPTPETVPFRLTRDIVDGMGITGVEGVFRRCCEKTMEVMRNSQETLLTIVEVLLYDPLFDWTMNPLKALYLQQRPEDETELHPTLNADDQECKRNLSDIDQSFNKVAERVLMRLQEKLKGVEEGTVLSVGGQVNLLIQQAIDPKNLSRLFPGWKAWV
Procedure, shortened: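 NCI-H460 cells treated with compound for 1 hour, then irradiated with 8Gy and incubated 1 hour at 37° C. Phospho-Chk2 measured by AlphaScreen SureFire. Inhibition ratio calculated relative to untreated irradiated and non-irradiated wells.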

For `Cc1ccnc(CNc2ccc3c(c2)Sc2cccc(-c4cc(N5CCOCC5)cc(=O)[nH]4)c2S3)c1` [Example 1-12-5, 6-(7-(((4-Methylpyridin-2-yl)methyl)amino)thianthren-1-yl)-4-morpholino pyridin-2 (1H)-one], the SER2 (concentration at which the radiation sensitivity-enhancement ratio reaches 2) [1] was 100 to 500 nM and the IC50 [2] was less than 100 nM.
With `CC(Nc1ccc2c(c1)Cc1cccc(-c3cc(N4CCOCC4)cc(=O)[nH]3)c1O2)c1cc(Cl)ccn1` (single isomer, unassigned) [Example 2-14-89-2, 6-(7-((1-(4-chloropyridin-2-yl)ethyl)amino)-9H-xanthen-4-yl)-4-morpholinopyridin-2(1H)-one] the SER2 (concentration at which the radiation sensitivity-enhancement ratio reaches 2) [1] was less than 100 nM and the IC50 [2] was less than 100 nM.
With `Cc1cccc(C(C)Nc2ccc3c(c2)Sc2cccc(-c4cc(N5CCOCC5)cc(=O)[nH]4)c2S3)n1` (stereo not shown) [Example 1-12-30, 6-(7-((1-(6-Methylpyridin-2-yl)ethyl)amino)thianthren-1-yl)-4-morpholino pyridin-2 (1H)-one] the SER2 (concentration at which the radiation sensitivity-enhancement ratio reaches 2) [1] was less than 100 nM and the IC50 [2] was less than 100 nM.
`COc1ncccc1CN1CCC(Nc2ccc3c(c2)Cc2cccc(-c4cc(N5CCOCC5)cc(=O)[nH]4)c2O3)CC1` [Example 2-28-5, 6-(7-((1-((2-Methoxypyridin-3-yl)methyl)piperidin-4-yl)amino)-9H-xanthen-4-yl)-4-morpholino pyridin-2(1H)-one] showed an SER2 (concentration at which the radiation sensitivity-enhancement ratio reaches 2) [1] of 500 to 2000 nM and an IC50 [2] of less than 100 nM.
With `O=c1cc(N2CCOCC2)cc(-c2cccc3c2Oc2ccc(NCc4cncc(N5CCCC5)c4)cc2S3)[nH]1` [Example 4-4-7, 4-Mmorpholino-6-(8-(((5-(pyrrolidin-1-yl)pyridin-3-yl)methyl)amino)phenoxathiin-4-yl)pyridin-2(1H)-one] the SER2 (concentration at which the radiation sensitivity-enhancement ratio reaches 2) [1] was 100 to 500 nM and the IC50 [2] was less than 100 nM.
`CC(Nc1ccc2c(c1)Sc1cccc(-c3cc(N4CCOCC4)cc(=O)[nH]3)c1S2)c1nccc(C(F)F)n1` (stereo not shown) [Example 1-12-87, 6-(7-((1-(4-(Difluoromethyl)pyrimidin-2-yl)ethyl)amino)thianthren-1-yl)-4-morpholino pyridin-2(1H)-one] gave an SER2 (concentration at which the radiation sensitivity-enhancement ratio reaches 2) [1] of 100 to 500 nM and an IC50 [2] of less than 100 nM.
`O=c1cc(N2CCOCC2)cc(-c2cccc3c2Sc2ccc(NCc4ccnc(Cl)c4)cc2S3)[nH]1` [Example 1-12-18] was tested, and the IC50 ([1]; read-out: SER2) was 100 to 500 nM and the IC50 [2] was less than 100 nM.
Work on `O=c1cc(N2CCOCC2)cc(-c2cccc3c2Oc2ccc(NCc4ccnc(Br)c4)cc2C3)[nH]1` [Example 2-2-53, 6-(7-(((2-Bromopyridin-4-yl)methyl)amino)-9H-xanthen-4-yl)-4-morpholino pyridin-2 (1H)-one] yielded an SER2 (concentration at which the radiation sensitivity-enhancement ratio reaches 2) [1] of 500 to 2000 nM and an IC50 [2] of less than 100 nM.
For `CC(Nc1ccc2c(c1)Cc1cccc(-c3cc(N4CCOCC4)cc(=O)[nH]3)c1O2)c1nccc(CF)n1` (single isomer, unassigned) [Example 2-14-94-1, 6-(7-((1-(4-(fluoromethyl)pyrimidin-2-yl)ethyl)amino)-9H-xanthen-4-yl)-4-morpholinopyridin-2(1H)-one], the SER2 (concentration at which the radiation sensitivity-enhancement ratio reaches 2) [1] was less than 100 nM and the IC50 [2] was less than 100 nM.
Work on `CN(C)c1cncc(CNc2ccc3c(c2)Cc2cccc(-c4cc(N5CCOCC5)cc(=O)[nH]4)c2O3)c1` [Example 2-21-7, 6-(7-(((5-(Dimethylamino)pyridin-3-yl)methyl)amino)-9H-xanthen-4-yl)-4-morpholino pyridin-2(1H)-one] yielded an SER2 (concentration at which the radiation sensitivity-enhancement ratio reaches 2) [1] of 500 to 2000 nM and an IC50 [2] of less than 100 nM.
With `Cc1cnc(C(C)Nc2ccc3c(c2)Cc2cccc(-c4cc(N5CCOCC5)cc(=O)[nH]4)c2O3)cn1` (single isomer, unassigned) [Example 2-14-90-2, 6-(7-((1-(5-methylpyrazin-2-yl)ethyl)amino)-9H-xanthen-4-yl)-4-morpholinopyridin-2(1H)-one] the SER2 (concentration at which the radiation sensitivity-enhancement ratio reaches 2) [1] was less than 100 nM and the IC50 [2] was less than 100 nM.

Source: patent publication US9586951B2 (FUJIFILM Corporation, priority 2013, dated 2017)
